From patent US20070197540A1, “Pyrazolopyrimidines” (priority 2003, published 2007)
Like-named read-outs stand apart in the source and are kept apart here.

Experiment: logP determination by HPLC (EEC Directive 79/831 Annex V. A8)
Type: physicochemical
Protocol: logP value is determined in accordance with EEC Directive 79/831 Annex V. A8 by HPLC (gradient method, acetonitrile/0.1% aqueous phosphoric acid)

[1] = HPLC, gradient method, acetonitrile/0.1% aqueous phosphoric acid, read-out: logP

Compound | chromatographic logP [1] | other results
CC1CCN(c2c(-c3ccc(F)cc3Cl)c(Cl)nc3c(CO)cnn23)CC1 [Example 1, 3-hydroxymethyl-5-chloro-6-(2-chloro-4-fluorophenyl)-7-(4-methylpiperidino)pyrazolo[1,5-a]pyrimidine] | 3.89 | 
COCc1cnn2c(N3CCC(C)CC3)c(-c3ccc(F)cc3Cl)c(Cl)nc12 [Example 2, 3-methoxymethyl-5-chloro-6-(2-chloro-4-fluorophenyl)-7-(4-methylpiperidno)pyrazolo[1,5-a]pyrimidine] | 5.09 | 
CCC1COC(c2cnn3c(NC(C)C(C)(C)C)c(-c4ccc(F)cc4Cl)c(Cl)nc23)O1 (stereo not drawn) [Example 23] | 5.7 | 
CC1CCN(c2c(-c3ccc(F)cc3Cl)c(Cl)nc3c(C=O)cnn23)CC1 [Example 541, 3-formyl-5-chloro-6-(2-chloro-4-fluorophenyl)-7-(4-methylpiperidino)pyrazolo[1,5-a]pyrimidine] |  | chromatographic logP (HPLC, gradient of acetonitrile/0.1% aqueous phosphoric acid, pH=2.3, read-out: log P(pH=2.3)): 4.53
CC(Nc1c(-c2ccc(F)cc2Cl)c(Cl)nc2c(C=O)cnn12)C(C)(C)C (stereo not drawn) [Example 542, 3-formyl-5-chloro-6-(2-chloro-4-fluorophenyl)-7-(3,3-dimethylbut-2-ylamino)pyrazolo[1,5-a]pyrimidine] |  | chromatographic logP (HPLC (gradient method), per EEC Directive 79/831 Annex V. A8, two values, one per atropisomer, read-out: log P (atropisomers)): 4.47
CC1CCN(c2c(-c3ccc(F)cc3Cl)c(Cl)nc3c(C#N)cnn23)CC1 [Example 543, 3-cyano-5-chloro-6-(2-chloro-4-fluorophenyl)-7-(4-methylpiperidino)pyrazolo[1,5-a]pyrimidine] |  | chromatographic logP (pH=2.3, read-out: log P(pH=2.3)): 4.88
